{
  "source": "paper PMC9605374",
  "about": "(Marine Drugs, 2022)",
  "assay_type_in_all_cases": "cell-based, human",
  "key": {"[1]": {"tested_on": "22Rv1 cells", "experiment": "Annexin-V-FITC/PI double staining, flow cytometry", "procedure": "Figure 4 Investigation of the proapoptotic activity of NB. Flow cytometry analysis of 22Rv1 cells after 48 h of treatment. (A) Cell cycle and DNA fragmentation analysis. Treated cells were stained with PI and analyzed using a flow cytometry technique. Sub-G1 population was assumed to be apoptotic cells containing fragmentated DNA. (B) Analysis of phosphatidylserine externalization. Treated cells were double-stained with annexin-V-FITC and PI and analyzed using the flow cytometry technique. Cells of the low left quadrant (annexin-V-FITC^−/PI^−) were considered as alive cells. The Cell Quest Pro v.5.2.1 software (BD Bioscience, San Jose, CA, USA) was used to analyze and quantify the FACS data. Cells treated for 48 h with 10 µM of anisomycin were used as a positive control. Number of replicates n = 3. Statistical significance: * p < 0.05 (ANOVA). […]\nExternalization of phosphatidylserine is a distinct marker of apoptotic cell death that can be detected by flow cytometry using annexin-V-FITC and propidium iodide (PI) double staining. […] Cells were harvested utilizing trypsin, stained with annexin-V-FITC and propidium iodide, and analyzed using FACS Calibur (BD Bioscience, San Jose, CA, USA)."}, "[2]": {"tested_on": "caspase-3 in 22Rv1 cells", "experiment": "Western blotting, caspase-3 cleavage", "settings": "22Rv1, 48 h after drug exposure", "procedure": "We examined several time points, specifically, 15 min, 2 h, and 48 h (Figure 6).\nFigure 6 Validation of kinome analysis data. 22Rv1 cells were treated with 1 µM or 10 µM of NB for the indicated time. The protein expression was analyzed by Western blotting using total protein load equal to 30 µg/slot. α-Tubulin was used as a loading control.\nThe Western blot assay was executed as previously described: 1 × 10^6 cells were seeded in Petri dishes (ø 6 cm, 5 mL/dish) and incubated overnight. On the next day, the cells were treated with the compounds in fresh culture media (5 mL/dish) for the indicated time. Next, cells were harvested with a cell scraper and lysed in lysis buffer including protease and phosphatase inhibitors cocktail (Roche, Mannheim, Germany). Cell debris were removed from the protein lysates via centrifugation. Afterwards, the cell-free protein mixtures were separated in gradient ready-made Mini-PROTEAN® TGX Stain-Free^TM gels (Bio-Rad, Hercules, CA, USA) using SDS-PAGE (sodium dodecylsulfate polyacrylamide gel electrophoresis). Then, the proteins were blotted onto ø 0.2 µm pore PVDF membrane. The membrane was blocked and consequently treated with primary and secondary antibodies for protein detection. The signals were detected using the ECL chemiluminescence system (Thermo Scientific, Rockford, IL, USA)."}, "[3]": {"tested_on": "PC3-DR cells", "experiment": "MTT assay with or without tariquidar pretreatment", "settings": "48 h, tariquidar 50 nM 30 min pretreatment", "procedure": "Number of replicates n = 3. […] Viability was measured using an MTT assay. Number of replicates n = 3.\nAs a next step, we investigated how NB interacts with p-gp. P-gp activity can be reduced in two distinct ways: (i) competitive inhibition through direct binding to the active pocket as the ligand itself; and (ii) allosteric/noncompetitive inhibition reducing the activity of a protein through binding to allosteric/regulatory sites or other means. […] Therefore, docetaxel binds to p-gp (while being excreted from the cell), competitively inhibiting p-gp-mediated calcein-AM excretion, which leads to calcein accumulation, resulting in more intense green fluoresce. To elucidate the mechanism of p-gp inhibition by NB (competitive vs. allosteric/noncompetitive inhibition), we co-treated PC3-DR cells with tariquidar (TQD), a selective noncompetitive p-gp inhibitor and NB, and examined the effect on cellular viability (Figure 8C). […]\nThe MTT assay was used to monitor the effect of the drugs on cell viability in terms of metabolic activity, as previously reported. […] Finally, 50 μL/well of DMSO were added to solve the formed formazan crystals produced by the metabolic active cells and Infinite F200PRO reader (TECAN, Männedorf, Switzerland) was used to measure the cell viability. […]"}},
  "data": [
    {"smiles": "COc1ccc(C2SSC34CC5(O)C(Cl)C=CC(O)C5ON3C(=O)C2N(C)C4=O)c(O)c1OC", "note": "(stereo not shown) [NB, N-methylpretrichodermamide B]", "values": [
      {"measurement": "phosphatidylserine externalization", "setting": "[1]; 22Rv1, 48 h", "value": "caused DNA fragmentation and phosphatidylserine externalization"},
      {"measurement": "effect of pretreatment with pan-caspase inhibitor zVAD on drug-induced cell death", "setting": "[1]; 22Rv1, zVAD 100 µM 1 h pretreatment, 48 h", "value": "could not significantly inhibit"},
      {"measurement": "caspase-3 cleavage", "setting": "[2]", "value": "caspase-3 cleavage that was observed"},
      {"measurement": "cytotoxicity when co-treated with TQD", "setting": "[3]", "value": "increased"}
    ]}
  ]
}
